Like-named read-outs stand apart in the source and are kept apart here.
Legend:
[1] = molecular target: T1, His-tagged recombinant human AXL cytoplasmic domain (Homo sapiens, UniProt P30530); assay: AXL Enzyme Assay (LanthaScreen Eu Kinase Binding); details: averaged IC50; 60-minute incubation at 22° C.; TR-FRET
T1 construct: His-tagged recombinant human AXL cytoplasmic domain
T1 sequence (P30530 473-894 limits assumed): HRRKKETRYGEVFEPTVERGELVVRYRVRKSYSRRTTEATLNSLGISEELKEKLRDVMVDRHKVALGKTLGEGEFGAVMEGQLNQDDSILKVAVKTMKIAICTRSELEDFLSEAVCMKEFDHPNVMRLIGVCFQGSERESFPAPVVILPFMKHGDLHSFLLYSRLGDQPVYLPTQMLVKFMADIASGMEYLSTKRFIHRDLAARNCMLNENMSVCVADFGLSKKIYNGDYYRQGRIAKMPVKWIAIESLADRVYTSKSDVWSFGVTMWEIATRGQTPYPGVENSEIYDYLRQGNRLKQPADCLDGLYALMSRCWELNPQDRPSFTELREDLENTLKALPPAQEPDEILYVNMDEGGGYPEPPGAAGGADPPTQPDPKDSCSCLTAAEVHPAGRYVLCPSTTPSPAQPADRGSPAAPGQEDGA
Description: Compounds disclosed herein were screened for their ability to inhibit AXL kinase using Invitrogen's LanthaScreen™Eu Kinase Binding technology. His-tagged recombinant human AXL cytoplasmic domain was incubated with 20 nM Alexa-Fluor® Tracer 236 (PR9078A), 2 nM biotinylated anti-His (Cat. No. M4408), and 2 nM europium-labeled Streptavidin (Cat. No. PV5899) along with test compound in a buffer consisting of 25 mM HEPES, pH 7.4, 10 mM MgCl2, 0.01% Triton X-100, and 2% DMSO. Compounds were typically prepared in a threefold serial dilution in DMSO and added to the assay to give the appropriate final concentration. After a 60-minute incubation at 22° C., the reaction was measured using a PerkinElmer EnVision multimode plate reader via TR-FRET dual wavelength detection, and the percent of control (POC) was calculated using a ratiometric emission factor. […] The POC values are fit to a 4 parameter logistic curve and the IC50 value is point where the curve crosses 50 POC.

MDR1 (P-gp) = molecular target: T2, MDR1 (P-gp) (Homo sapiens, UniProt P08183); assay: MDR1 LLC-PK1 permeability assay; assay type: in vitro ADME; details: pig, MDR1 transfected LLC-PK1 cells; for Papp at 2 h, 1 μM: permeability coefficient (Papp)
T2 construct: expressed in transfected cells; host or cells: LLC-PK1
Description: MDR1 transfected LLC-PK1 cells were cultured and plated according to manufacturer's recommendations with the exception that the passage media contained only 2% fetal bovine serum to extend passage time out to seven days.
Both positive and negative controls were used to assess functionality of P-gp efflux in the assay. Stock solutions for assay controls and the test article were prepared in DMSO for final test concentrations of 10 and 1 μM, respectively. Final organic concentration in the assay was 1%. All dosing solutions contained 10 μM lucifer yellow to monitor LLC-PK1 cell monolayer integrity.
For the apical to basolateral determination (A to B), 75 μL of the test article in transport buffer were added to the apical side of the individual transwells and 250 μL of basolateral media, without compound or lucifer yellow, were added to each well. For the basolateral to apical determination (B to A), 250 μL of test article in transport buffer were added to each well and 75 μL transport buffer, without compound or lucifer yellow, were added to each transwell. All tests were performed in triplicate, and each compound was tested for both apical to basolateral and basolateral to apical transport. The plates were incubated for 2 hours on a Lab-Line Instruments Titer Orbital Shaker (VWR, West Chester, Pa.) at 50 rpm and 37° C. with 5% CO2. All culture plates were removed from the incubator and 50 μL of media were removed from the apical and basolateral portion of each well and added to 150 μL of 1 μM labetalol in 2:1 acetonitrile (acetonitrile): H2O, v/v.
The plates were read using a Molecular Devices (Sunnyvale, Calif.) Gemini Fluorometer to evaluate the lucifer yellow concentrations at excitation/emission wavelengths of 425/535 nm. These values were accepted when found to be below 2% for apical to basolateral and 5% basolateral to apical flux across the MDR1-transfected LLC-PK1-transfected cell monolayers. The plates were sealed and the contents of each well analyzed by LC-MS/MS. The compound concentrations were determined from the ratio of the peak areas of the compound to the internal standard (labetalol) in comparison to the dosing solution.
The LC-MS/MS system was comprised of an HTS-PAL autosampler (Leap Technologies, Carrboro, N.C.), an HP1200 HPLC (Agilent, Palo Alto, Calif.), and a MDS Sciex 4000 Q Trap system (Applied Biosystems, Foster City, Calif.). […] The total run time, including re-equilibration, for a single injection was 1.2 minutes. Mass spectrometric detection of the analytes was accomplished using the ion spray positive mode. Analyte responses were measured by multiple reaction monitoring (MRM) of transitions unique to each compound (the protonated precursor ion and selected product ions for each test article and m/z 329 to m/z 162 for labetalol, the internal standard).
The permeability coefficient (Papp) is calculated from the following equation: […]
where Cd, V, t and C0 are the detected concentration (μM), the volume on the dosing side (mL), the incubation time (s) and the initial dosing concentration (μM), respectively. The calculations for Papp were made for each replicate and then averaged. In this assay, a compound is defined has having high permeability if the permeability is greater than 8×10^−6 cm/sec, a compound is defined has having medium permeability if the permeability is from 2×10^−6 cm/sec to 8×10^−6 cm/sec, and a compound is defined has having low permeability if the permeability is less than 2×10^−6 cm/sec.
An efflux ratio was calculated from the mean apical to basolateral (A-B) Papp data and basolateral to apical (B-A) Papp data:
Efflux ratio=Papp(B−A)/Papp(A−B)

[2] = LLC-PK1, Papp(B−A)/Papp(A−B), test article 1 μM, 2 hours, 37° C., read-out: Efflux ratio
[3] = LLC-PK1, efflux ratio = Papp(B-A)/Papp(A-B), read-out: MDR1 Pe Ratio

T2 sequence (P08183 whole entry): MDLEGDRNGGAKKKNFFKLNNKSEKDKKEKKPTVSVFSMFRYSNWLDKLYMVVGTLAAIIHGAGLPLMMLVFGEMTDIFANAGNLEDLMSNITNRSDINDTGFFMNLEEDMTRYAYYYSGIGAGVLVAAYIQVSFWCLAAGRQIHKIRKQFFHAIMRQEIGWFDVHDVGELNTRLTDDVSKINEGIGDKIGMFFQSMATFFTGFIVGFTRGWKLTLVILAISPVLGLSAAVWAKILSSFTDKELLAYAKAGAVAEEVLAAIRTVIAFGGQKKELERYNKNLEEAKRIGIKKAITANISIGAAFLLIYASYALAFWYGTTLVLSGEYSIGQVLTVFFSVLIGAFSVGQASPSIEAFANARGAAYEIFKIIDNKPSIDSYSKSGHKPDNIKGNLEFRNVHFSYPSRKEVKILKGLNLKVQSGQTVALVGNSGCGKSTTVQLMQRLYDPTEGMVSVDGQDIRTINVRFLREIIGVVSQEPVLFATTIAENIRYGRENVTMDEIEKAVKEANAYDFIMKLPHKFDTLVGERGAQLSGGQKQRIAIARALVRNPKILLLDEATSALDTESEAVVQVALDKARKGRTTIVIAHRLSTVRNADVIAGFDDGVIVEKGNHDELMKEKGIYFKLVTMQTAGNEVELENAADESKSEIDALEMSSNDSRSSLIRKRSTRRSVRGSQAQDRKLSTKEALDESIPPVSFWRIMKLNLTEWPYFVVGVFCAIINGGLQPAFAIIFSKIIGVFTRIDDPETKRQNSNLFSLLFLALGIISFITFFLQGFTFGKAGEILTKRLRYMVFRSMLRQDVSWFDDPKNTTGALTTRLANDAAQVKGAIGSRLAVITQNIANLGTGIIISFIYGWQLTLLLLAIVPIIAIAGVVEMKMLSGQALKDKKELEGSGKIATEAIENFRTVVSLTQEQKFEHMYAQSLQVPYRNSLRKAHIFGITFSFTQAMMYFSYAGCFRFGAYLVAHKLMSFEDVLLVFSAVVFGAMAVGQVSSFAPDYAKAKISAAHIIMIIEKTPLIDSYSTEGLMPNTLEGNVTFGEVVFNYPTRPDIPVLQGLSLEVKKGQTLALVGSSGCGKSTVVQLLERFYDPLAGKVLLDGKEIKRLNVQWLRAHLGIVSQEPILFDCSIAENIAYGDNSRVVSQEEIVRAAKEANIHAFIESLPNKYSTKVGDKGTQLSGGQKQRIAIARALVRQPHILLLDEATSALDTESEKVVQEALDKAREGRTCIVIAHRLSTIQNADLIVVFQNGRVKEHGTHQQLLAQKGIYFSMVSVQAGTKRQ

COc1cc2nccc(Oc3ccc(NC(=O)c4cn(C(C)C)cc(-c5ccc(F)cc5)c4=O)nc3)c2cc1OC [Example 1]
IC50 [1]: 1 nM
efflux ratio at 2 h, 1 μM (MDR1 (P-gp); [2]): 3.5
efflux ratio at 2 h, 1 μM (MDR1 (P-gp); [3]): 3.2
Papp at 2 h, 1 μM (MDR1 (P-gp)): 10 ×10⁻⁶ cm/s

COc1cc2nccc(Oc3ccc(NC(=O)c4cn(C)cc(-c5ccc(F)cc5)c4=O)nc3)c2cc1OC [Example 2]
IC50 [1]: 1 nM
efflux ratio at 2 h, 1 μM (MDR1 (P-gp); [3]): 8.3
Papp at 2 h, 1 μM (MDR1 (P-gp)): 15 ×10⁻⁶ cm/s

CCn1cc(C(=O)Nc2ccc(Oc3ccnc4cc(OC)c(OC)cc34)cn2)c(=O)c(-c2ccc(F)cc2)c1 [Example 3]
IC50 [1]: 1 nM
efflux ratio at 2 h, 1 μM (MDR1 (P-gp); [3]): 4.3
Papp at 2 h, 1 μM (MDR1 (P-gp)): 10 ×10⁻⁶ cm/s

COc1cc2nccc(Oc3ccc(NC(=O)c4cn(C(C)C)cc(-c5ccc(F)cc5F)c4=O)nc3)c2cc1OC [Example 4]
IC50 [1]: 1 nM
efflux ratio at 2 h, 1 μM (MDR1 (P-gp); [2]): 3.5
efflux ratio at 2 h, 1 μM (MDR1 (P-gp); [3]): 1.5
Papp at 2 h, 1 μM (MDR1 (P-gp)): 10 ×10⁻⁶ cm/s

COc1cc2nccc(Oc3ccc(NC(=O)c4cn(C(C)C)cc(-c5ccc(Cl)cc5)c4=O)nc3)c2cc1OC [Example 5, 5-(4-chlorophenyl)-N-(5-((6,7-dimethoxyquinolin-4-yl)oxy)pyridin-2-yl)-1-isopropyl-4-oxo-1,4-dihydropyridine-3-carboxamide]
IC50 [1]: 2 nM
efflux ratio at 2 h, 1 μM (MDR1 (P-gp); [2]): 3.5
efflux ratio at 2 h, 1 μM (MDR1 (P-gp); [3]): 2.6
Papp at 2 h, 1 μM (MDR1 (P-gp)): 5 ×10⁻⁶ cm/s

COc1cc2nccc(Oc3ccc(NC(=O)c4cn(C(C)C)cc(-c5ccc(F)c(F)c5)c4=O)nc3)c2cc1OC [Example 6]
IC50 [1]: 2 nM
efflux ratio at 2 h, 1 μM (MDR1 (P-gp); [3]): 4.9
Papp at 2 h, 1 μM (MDR1 (P-gp)): 7 ×10⁻⁶ cm/s

COCCn1cc(C(=O)Nc2ccc(Oc3ccnc4cc(OC)c(OC)cc34)cn2)c(=O)c(-c2ccc(F)cc2)c1 [Example 7, N-(5((6,7-dimethoxyquinolin-4-yl)oxy)pyridin-2-yl)-5-(4-fluorophenyl)-1-(2-methoxyethyl)-4-oxo-1,4-dihydropyridine-3-carboxamide]
IC50 [1]: 2 nM
efflux ratio at 2 h, 1 μM (MDR1 (P-gp); [3]): 8.2
Papp at 2 h, 1 μM (MDR1 (P-gp)): 11 ×10⁻⁶ cm/s

COc1cc2nccc(Oc3ccc(NC(=O)c4cn(CC5CCOCC5)cc(-c5ccc(F)cc5)c4=O)nc3)c2cc1OC [Example 8, N-(5-((6,7-dimethoxyquinolin-4-yl)oxy)pyridin-2-yl)-5-(4-fluorophenyl)-4-oxo-1-((tetrahydro-2H-pyran-4-yl)methyl)-1,4-dihydropyridine-3-carboxamide]
IC50 [1]: 2 nM
efflux ratio at 2 h, 1 μM (MDR1 (P-gp); [3]): 10
Papp at 2 h, 1 μM (MDR1 (P-gp)): 9 ×10⁻⁶ cm/s

COc1cc2nccc(Oc3ccc(NC(=O)c4cn(CC(C)(C)O)cc(-c5ccc(F)cc5)c4=O)nc3)c2cc1OC [Example 9, N-(5-((6,7-dimethoxyquinolin-4-yl)oxy)pyridin-2-yl)-5-(4-fluorophenyl)-1-(2-hydroxy-2-methylpropyl)-4-oxo-1,4-dihydropyridine-3-carboxamide]
IC50 [1]: 2 nM
efflux ratio at 2 h, 1 μM (MDR1 (P-gp); [3]): 26
Papp at 2 h, 1 μM (MDR1 (P-gp)): 14 ×10⁻⁶ cm/s

CCCn1cc(C(=O)Nc2ccc(Oc3ccnc4cc(OC)c(OC)cc34)cn2)c(=O)c(-c2ccc(F)cc2)c1 [Example 10, N-(5((6,7-dimethoxyquinolin-4-yl)oxy)pyridin-2-yl)-5-(4-fluorophenyl)-4-oxo-1-propyl-1,4-dihydropyridine-3-carboxamide]
IC50 [1]: 4 nM
efflux ratio at 2 h, 1 μM (MDR1 (P-gp); [3]): 2.7
Papp at 2 h, 1 μM (MDR1 (P-gp)): 7 ×10⁻⁶ cm/s

COc1cc2nccc(Oc3ccc(NC(=O)c4cn(CC(C)C)cc(-c5ccc(F)cc5)c4=O)nc3)c2cc1OC [Example 11, N-(5-((6,7-dimethoxyquinolin-4-yl)oxy)pyridin-2-yl)-5-(4-fluorophenyl)-1-isobutyl-4-oxo-1,4-dihydropyridine-3-carboxamide]
IC50 [1]: 5 nM
efflux ratio at 2 h, 1 μM (MDR1 (P-gp); [3]): 31

COc1cc2nccc(Oc3ccc(NC(=O)c4cn(C5CCOCC5)cc(-c5ccc(F)cc5)c4=O)nc3)c2cc1OC [Example 12, N-(5((6,7-dimethoxyquinolin-4-yl)oxy)pyridin-2-yl)-5-(4-fluorophenyl)-4-oxo-1-(tetrahydro-2H-pyran-4-yl)-1,4-dihydropyridine-3-carboxamide]
IC50 [1]: 2 nM
efflux ratio at 2 h, 1 μM (MDR1 (P-gp); [3]): 15
Papp at 2 h, 1 μM (MDR1 (P-gp)): 13 ×10⁻⁶ cm/s
